Measured values from US20100081679A1, “DIAMINOPYRIMIDINES AS FUNGICIDES” (Bayer CropScience AG, priority 2007, published 2010).
Structures can show the parent of a compound that is named as a salt. Marks after values point to notes of the source that are not given here.

Assay: logP determination via retention times, calibrated with unbranched alkan-2-ones
Assay type: physicochemical
Details: HPLC on reversed-phase C 18, EEC Directive 79/831 Annex V.A8; method *: 40° C., 0.1% aqueous formic acid and acetonitrile, linear gradient 10% to 95% acetonitrile

| SMILES | logP |
| --- | --- |
| OCc1cccc(Nc2ncc(Cl)c(NCC3CC3)n2)c1 [compound 560] | 1.47* |
| O=C1Cc2cc(Nc3ncc(Cl)c(NCC4CC4)n3)ccc2N1 [compound 516] | 1.31* |
| O=C(N(c1ccc(Nc2ncc(Br)c(NCC3CC3)n2)cc1)C1CC1)C(F)(F)F [compound 465] | 2.74* |
| C=CC(=O)Nc1cccc(Nc2ncc(Br)c(NCC3CC3)n2)c1 [compound 482] | 1.66* |
| CC(=O)Nc1ccc(Nc2ncc(Br)c(NCC3CC3)n2)cc1Cl [compound 479] | 1.68* |
| CC(=O)Nc1cc(Nc2ncc(Br)c(NCC3CC3)n2)ccc1C [compound 468] | 1.51* |
| CCC(=O)c1cc(Nc2ncc(Cl)c(NCC3CC3)n2)ccc1O [compound 541] | 2.13* |
| CN(C)C(=O)c1cccc(Nc2ncc(Cl)c(NCC3CC3)n2)c1 [compound 519] | 1.58* |
| CCCOc1cccc(Nc2ncc(Cl)c(NC3CC3)n2)c1 [compound 531] | 2.64* |
| CC(C)(C)NC(=O)Cc1cccc(Nc2ncc(Cl)c(NCC3CC3)n2)c1 [compound 561] | 1.93* |
| CNC(=O)Oc1cccc(Nc2ncc(Cl)c(NCC3CC3)n2)c1 [compound 514] | 1.61* |
| CCC(=O)Nc1cc(Nc2ncc(Br)c(NCC3CC3)n2)ccc1O [compound 494] | 1.97* |

Same assay, conditions: HPLC on reversed-phase C 18, method **: 43° C.; 0.1% aqueous phosphoric acid and acetonitrile; linear gradient 10% to 95% acetonitrile

| SMILES | logP |
| --- | --- |
| CC(=O)Nc1cc(Nc2ncc(C(F)(F)F)c(NC3CC3)n2)ccc1C [compound 662] | 1.82** |
| CN(CC1CC1)c1nc(Nc2ccccc2)ncc1Cl [compound 963] | 2.72** |

Same assay, conditions: HPLC on reversed-phase C18, method **: 43° C.; mobile phase 0.1% aqueous phosphoric acid and acetonitrile; linear gradient 10% to 95% acetonitrile

| SMILES | logP |
| --- | --- |
| Cc1cc(Nc2ncc(Cl)c(NC3CC3)n2)c(C)cc1N [compound 313] | 0.87** |

Same assay, conditions: HPLC on reversed-phase C18, method *: 40° C., 0.1% aqueous formic acid and acetonitrile, linear gradient 10% to 95% acetonitrile

| SMILES | logP |
| --- | --- |
| CN(C=O)c1ccc(Nc2ncc(Cl)c(NC3CC3)n2)cc1 [compound 978] | 1.44* |
| COC(=O)c1ccc(Nc2ncc(Br)c(NC3CC3)n2)cc1 [compound 762] | 2.4* |
| Clc1cnc(Nc2ccc3c(c2)OCO3)nc1NCC1CC1 [compound 695] | 1.75* |
| CC(C)C1COC(=O)N1c1ccc(Nc2ncc(Cl)c(NC3CC3)n2)cc1 (stereo not drawn) [compound 109] | 2.79* |
| CCc1ccc(Nc2ncc(Cl)c(NC3CC3)n2)cc1 [compound 951] | 2.13* |
| Oc1ccc(Nc2ncc(Cl)c(NCC3CC3)n2)cc1 [compound 680] | 1.36* |
| O=CNc1cccc(Nc2ncc(Br)c(NC3CC3)n2)c1 [compound 716] | 1.23* |
| CC(=O)CCc1cccc(Nc2ncc(Br)c(NC3CC3)n2)c1 [compound 967] | 1.83* |
| Clc1cnc(Nc2ccccc2Br)nc1NC1CC1 [compound 871] | 2.7* |
| CC(=O)Nc1cc(Nc2ncc(C(F)(F)F)c(NC3CC3)n2)ccc1C [compound 662] | 1.71*; |
| C=CC(=O)Nc1cccc(Nc2ncc(Br)c(NC3CC3)n2)c1 [compound 754] | 1.54* |
| CSc1ccc(Nc2ncc(Cl)c(NC3CC3)n2)cc1N [compound 664] | 1.69* |
| CC(C)(C)NC(=O)Cc1cccc(Nc2ncc(Br)c(NC3CC3)n2)c1 [compound 698] | 1.94* |
| CC(C)C(=O)Nc1ccc(Nc2ncc(Cl)c(NC3CC3)n2)cc1 [compound 111] | 1.43* |

Same assay, conditions: HPLC on reversed-phase C18, method *: 40° C.; mobile phase 0.1% aqueous formic acid and acetonitrile; linear gradient 10% to 95% acetonitrile

| SMILES | logP |
| --- | --- |
| FC(F)Oc1ccc(Nc2ncc(Cl)c(NC3CC3)n2)cc1 [compound 288] | 2.11* |
| FC(F)(F)c1ccccc1Nc1ncc(Cl)c(NC2CC2)n1 [compound 276] | 2.58* |
| FC(F)(F)Oc1ccc(Nc2ncc(Cl)c(NC3CC3)n2)cc1Cl [compound 296] | 3.9* |
| CC(=O)Nc1ccc(Nc2ncc(Br)c(NC3CC3)n2)cc1 [compound 348] | 1.31* |

Same assay, conditions: HPLC on reversed-phase C18 column (EEC Directive 79/831 Annex V.A8); method *: 40° C.; 0.1% aqueous formic acid and acetonitrile; linear gradient 10% to 95% acetonitrile

| SMILES | logP |
| --- | --- |
| CC(=O)Nc1cccc(Nc2ncc(C(F)(F)F)c(NCC3CC3)n2)c1 [compound 204] | 1.9* |
| Clc1cnc(Nc2ccc(NC3CC3)nc2)nc1NC1CC1 [compound 186] | 0.92* |
| CCOC(=O)Cc1ccc(Nc2ncc(Cl)c(NC3CC3)n2)cc1 [compound 247] | 1.99* |
| CC(C)(C)C(=O)Cc1ccc(Nc2ncc(C(F)(F)F)c(NCC3CC3)n2)cc1 [compound 210] | 3.41* |

Same assay, conditions: HPLC reversed-phase C 18, EEC Directive 79/831 Annex V.A8; method *: 40° C., 0.1% aqueous formic acid and acetonitrile, linear gradient 10% to 95% acetonitrile

| SMILES | logP |
| --- | --- |
| Clc1cnc(Nc2ccccc2)nc1NCC1CC1(Cl)Cl (stereo not drawn) [compound 800] | 2.46* |
| COCC(=O)Nc1cccc(Nc2ncc(Cl)c(NC3CC3)n2)c1 [compound 793] | 1.33* |
| Clc1cnc(Nc2ccccc2)nc1NC1(COc2ccccc2)CC1 [compound 801] | 2.88* |
| Cc1ccc(Nc2ncc(Cl)c(NC3CC3)n2)cc1CC#N [compound 819] | 1.79* |
| O=C1OCCN1c1cccc(Nc2ncc(Br)c(NCC3CC3)n2)c1 [compound 862] | 1.68* |
| CSC(C)c1cccc(Nc2ncc(C(F)(F)F)c(NC3CC3)n2)c1 (stereo not drawn) [compound 825] | 3.81* |
| O=[N+]([O-])c1cccc(Nc2ncc(Cl)c(NC3CC3)n2)c1 [compound 788] | 2.63* |
| N#CCc1cc(Nc2ncc(Cl)c(NCC3CC3)n2)ccc1F [compound 816] | 1.87* |
| Oc1c(Cl)cc(Nc2ncc(Cl)c(NC3CC3)n2)cc1Cl [compound 845] | 1.99* |
| CC(O)C(=O)Nc1cccc(Nc2ncc(Cl)c(NC3CC3)n2)c1 (stereo not drawn) [compound 856] | 1.49* |
| CC(C)c1cccc(Nc2ncc(Cl)c(NCC3CC3)n2)c1 [compound 777] | 2.71* |

Same assay, conditions: method **: HPLC reversed-phase C 18, 43° C., 0.1% aqueous phosphoric acid and acetonitrile, linear gradient 10% to 95% acetonitrile

| SMILES | logP |
| --- | --- |
| N#Cc1cc(Nc2ncc(Cl)c(NC3CC3)n2)ccc1N1CCCC1 [compound 439] | 2.23** |
| CNS(=O)(=O)Cc1ccc(Nc2ncc(Cl)c(NC3CC3)n2)cc1 [Example 48] | 1.37** |

Same assay, conditions: method **: HPLC reversed-phase C 18, temperature 43° C.; mobile phase 0.1% aqueous phosphoric acid and acetonitrile; linear gradient 10% to 95% acetonitrile

| SMILES | logP |
| --- | --- |
| CSc1ccc(Nc2ncc(C(F)(F)F)c(NC3CC3)n2)cc1 [compound 653] | 3.35** |

Same assay, conditions: method **: HPLC, reversed-phase C 18, 43° C., mobile phase 0.1% aqueous phosphoric acid and acetonitrile, linear gradient from 10% to 95% acetonitrile

| SMILES | logP |
| --- | --- |
| CC1CC1Nc1nc(Nc2ccccc2)ncc1Cl (stereo not drawn) [compound 1008] | 2** |

Same assay, conditions: method *: HPLC reversed-phase C18, 40° C., 0.1% aqueous formic acid and acetonitrile, linear gradient 10% to 95% acetonitrile

| SMILES | logP |
| --- | --- |
| FC(F)Sc1ccc(Nc2ncc(Cl)c(NC3CC3)n2)cc1 [compound 94] | 2.77* |
| CNC(=O)c1ccc(Nc2ncc(Br)c(NC3CC3)n2)cc1 [compound 382] | 1.39* |
| CCSc1cccc(Nc2ncc(Cl)c(NC3CC3)n2)c1.Cc1ccc(S(=O)(=O)O)cc1 [compound 440] | 2.73* |
| O=C1CCCCN1Cc1cccc(Nc2ncc(Cl)c(NC3CC3)n2)c1 [compound 373] | 1.58* |
| CC(C)(C)C(=O)Nc1cccc(Nc2ncc(Br)c(NCC3CC3)n2)c1 [compound 451] | 2.06* |
| CC(=O)Nc1ccc(Nc2ncc(Cl)c(NC3CC3)n2)cc1.Cc1ccc(S(=O)(=O)O)cc1 [compound 434] | 1.02* |
| O=S(=O)(c1ccc(Nc2ncc(Cl)c(NC3CC3)n2)cc1)N1CCOCC1 [compound 85] | 2.68* |
| Ic1cnc(Nc2ccccc2)nc1NC1CC1 [compound 364] | 1.82* |
| CC(C)(C)C(=O)Cc1ccc(Nc2ncc(Cl)c(NC3CC3)n2)cc1 [Example 59] | 2.3* |
| CCOC(=O)Nc1cccc(Nc2ncc(Br)c(NC3CC3)n2)c1 [compound 385] | 1.83* |
| O=C1Cc2cc(Nc3ncc(Cl)c(NC4CC4)n3)ccc2N1 [Example 56] | 1.05* |
| C=CCNC(=O)c1ccc(Nc2ncc(Br)c(NCC3CC3)n2)cc1 [compound 425] | 1.9* |
| Cc1ccc(S(=O)(=O)O)cc1.O=C1CCCN1c1ccc(Nc2ncc(Cl)c(NC3CC3)n2)cc1 [Example 89] | 1.44* |

Same assay, conditions: method *: HPLC reversed-phase C 18, temperature 40° C.; mobile phase 0.1% aqueous formic acid and acetonitrile; linear gradient 10% to 95% acetonitrile

| SMILES | logP |
| --- | --- |
| O=C(NCC(F)(F)F)c1cccc(Nc2ncc(Cl)c(NC3CC3)n2)c1 [compound 630] | 1.8* |
| CC(=O)N(C)c1ccc(Nc2ncc(F)c(NC3CC3)n2)cc1 [compound 582] | 1.23* |
| O=C1NC(=O)C(c2ccc(Nc3ncc(C(F)(F)F)c(NC4CC4)n3)cc2)N1 (stereo not drawn) [compound 658] | 1.58* |
| CCOC(=O)Nc1cccc(Nc2ncc(F)c(NC3CC3)n2)c1 [compound 596] | 1.53* |
| CSc1ccc(Nc2ncc(C(F)(F)F)c(NC3CC3)n2)cc1 [compound 653] | 3.1*; |

Same assay, conditions: method *: HPLC, reversed-phase C 18, 40° C., mobile phase 0.1% aqueous formic acid and acetonitrile, linear gradient from 10% to 95% acetonitrile

| SMILES | logP |
| --- | --- |
| CCCCCc1ccc(Nc2ncc(Cl)c(NC3CC3)n2)cc1 [compound 1048] | 3.55* |
| COCC1CCCN1C(=O)c1cccc(Nc2ncc(Cl)c(NC3CC3)n2)c1 (stereo not drawn) [compound 1061] | 1.77* |
| Clc1cnc(Nc2cccc(C3CCCC3)c2)nc1NC1CC1 [compound 1066] | 3.18* |
| COC(=O)c1cc(Nc2ncc(Cl)c(NC3CC3)n2)ccc1O [compound 993] | 1.81* |
| CCCSc1cccc(Nc2ncc(Cl)c(N(C)C3CC3)n2)c1 [compound 983] | 4.88* |

Same assay, conditions: pH 2.3; read-out: logP (pH2.3)

| SMILES | chromatographic logP |
| --- | --- |
| CC(C)Oc1ccc(Nc2ncc(Cl)c(NCC3CC3)n2)cc1 [Example 55, 5-Chloro-N^4-(cyclopropylmethyl)-N^2-(4-isopropoxyphenyl)pyrimidine-2,4-diamine hydrochloride] | 2.11 |
| FC(F)(F)c1cnc(Cl)nc1NC1CC1 [2-chloro-N-cyclopropyl-5-trifluoromethylpyrimidine-4-amine] | 2.39 |

Same assay, conditions: reversed-phase C18 HPLC column; method **: HPLC reversed-phase C 18, 43° C., 0.1% aqueous phosphoric acid and acetonitrile, linear gradient 10% to 95% acetonitrile; read-out: logP

| SMILES | chromatographic logP |
| --- | --- |
| CC(C)Oc1ccc(Nc2ncc(Cl)c(NCC3CC3)n2)cc1 [Example 55, 5-Chloro-N^4-(cyclopropylmethyl)-N^2-(4-isopropoxyphenyl)pyrimidine-2,4-diamine hydrochloride] | 2.11 |
